What all share (assay): growth of human tumour cells (NCI), 48 h
Assay [1] relates to A549 NSCLC.
The subject of assay [2] is HCT-116 colon.
Assay [3] relates to HS 578T breast.
The subject of assay [4] is HT29 colon.
Assay [5] concerns K-562 leukemia.
In assay [6] the test system is MDA-MB-231 breast.
The subject of assay [7] is NCI-H522 lung.
Assay [8] concerns OVCAR-4 ovarian.
For assay [9], the system named is SNB-19 CNS.
Assay [10] relates to UACC-257 melanoma.

Results on 8 compounds are retold here after PubChem BioAssay (NCI).

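Protocol summary: plate cells (96-well), add compound at 5 concentrations, incubate 48 h, interpolate endpoints linearly. At the GI50, growth is halved. TGI is the concentration that stops growth completely.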

On to `CCN(CC)CCOc1ccc(/C(=C(\C)c2ccc(F)c(OC)c2)c2ccc(Cl)cc2)cc1`, for which the GI50 in [1] is 2.61 µM; in assay [2] it was 2.24 µM; in assay [3], 2.42 µM; in [4], 0.582 µM; in assay [5], 0.855 µM; in assay [6] it was 2.54 µM. Moreover, the GI50 was 2.73 µM in assay [7], 2.1 µM in [8], 2.83 µM in assay [9] and 2.18 µM in assay [10]. Moreover, the TGI in assay [1] amounted to 5.63 µM; in assay [2], 4.86 µM; in assay [3], 5.84 µM; in assay [4], 2.87 µM; in assay [5], 6 µM; in assay [6] it was 4.8 µM. Moreover, the TGI in [7] came out at 5.79 µM; in [8] it was 4.45 µM; in assay [9], 5.17 µM; in [10], 4.67 µM.
For the compound `COc1ccc(-n2cc(-c3ccc(Cl)c(Cl)c3)nc2SCc2cccc(C#N)c2)cc1`, the GI50 is 93.8 µM in [1]; 4.55 µM in assay [2]; 18.4 µM in assay [3]; 4.7 µM in [4]; greater than 100 µM in [5]; 68 µM in [6]. The GI50 is 13.6 µM in assay [7], 11.9 µM in [8], 29.2 µM in [9] and 66.9 µM in assay [10]. Besides, the TGI in assay [1], in assay [2], in [3], in assay [4], in assay [5] and in assay [6] was greater than 100 µM throughout. Also, the TGI in assay [7], in assay [8], in assay [9] and in assay [10] was greater than 100 µM each time.
For `O=C(Nc1cccc(Cl)c1Cl)c1cccc(NC2=C(Cl)C(=O)N(Cc3ccccc3)C2=O)c1`, the GI50 in assay [1] was 36.2 µM; in [2], 22.1 µM; in assay [3], 28.7 µM; in assay [4], 79.9 µM; in [5], 5.32 µM; in assay [6], 32.2 µM. Moreover, the GI50 in [7] was 12.6 µM; in [8], 57.7 µM; in assay [9] it was greater than 100 µM; in assay [10], 23.3 µM. Further, the TGI in assay [1] was greater than 100 µM; in assay [2], greater than 100 µM; in assay [3], greater than 100 µM; in [4] it was greater than 100 µM; in assay [5], 37.5 µM; in assay [6], greater than 100 µM. The TGI in assay [7] was 54.7 µM; in [8] it was greater than 100 µM; in [9] it was greater than 100 µM; in assay [10] it was 72.3 µM.
Turning to `COc1ccccc1/C=C/c1cnccn1`, the TGI in [1], in assay [2], in assay [3], in assay [4], in [5] and in [6] was greater than 10 µM in each case. In addition, the TGI in [7], in [8], in assay [9] and in assay [10] was greater than 10 µM each time.
As for `OCCCCC#Cc1ccccc1C#Cc1cccc(O)c1`, the GI50 in assay [1] is 15.7 µM; in assay [2] it was 15.5 µM; in [3], 31.2 µM; in assay [4], 17.1 µM; in assay [5] it was 19.2 µM; in assay [6] it was 12.8 µM. Moreover, the GI50 is 14.3 µM in assay [7], 16.1 µM in [8], 15.5 µM in [9] and 18.1 µM in [10]. Further, the TGI in [1] was found to be 32.2 µM; in assay [2], 30 µM; in [3] it was 94.7 µM; in [4] it was 31.8 µM; in assay [5], 40.4 µM; in [6] it was 26.7 µM. Moreover, the TGI in assay [7] is 28.9 µM; in assay [8], 32.1 µM; in assay [9] it was 32.8 µM; in assay [10] it was 33.1 µM.
`Cc1c[n+](Cc2ccc3ccccc3c2)cn1Cc1ccc2ccccc2c1`: the GI50 in [1] is 5.05 µM; in assay [2], 1.39 µM; in [3] it was 2.22 µM; in assay [4] it was 1.07 µM; in assay [5] it was 1.38 µM; in assay [6] it was 1.54 µM. In addition, the GI50 in [7] is 1.41 µM; in assay [8], 0.583 µM; in [9] it was 1.54 µM; in assay [10] it was 1.46 µM. Further, the TGI came to 18.7 µM in assay [1]; 2.7 µM in assay [2]; 6.65 µM in assay [3]; 2.53 µM in [4]; 4.59 µM in assay [5]; 3.24 µM in [6]. The TGI in [7] is 3.05 µM; in assay [8], 2.35 µM; in assay [9], 3.14 µM; in assay [10], 3.16 µM.
For the compound `CCCCCc1c(C)[nH]c(/C=C2\N=C(c3ccc[nH]3)C=C2CC)c1C`, the GI50 in assay [1] was less than 0.0125 µM; in assay [2], less than 0.01 µM; in assay [3], 0.014 µM; in assay [4] it was less than 0.01 µM; in assay [5], less than 0.01 µM; in [6], less than 0.01 µM. Further, the GI50 was less than 0.01 µM in assay [7], less than 0.0176 µM in assay [8], 0.0433 µM in assay [9] and 0.0286 µM in assay [10]. Further, the TGI in assay [1] is 0.0846 µM; in [2], 0.0255 µM; in assay [3], 0.129 µM; in [4], 0.131 µM; in assay [5], 0.176 µM; in [6] it was 0.0186 µM. Besides, the TGI amounted to 0.106 µM in assay [7], 0.727 µM in [8], 1.46 µM in assay [9] and 0.167 µM in [10].
For `Fc1ccc(Nc2cc(-n3nnc4ccccc43)nc3ccccc23)cc1`, the GI50 is 64.4 µM in [1]; 36.4 µM in assay [2]; 18.2 µM in [3]; 43.9 µM in assay [4]; greater than 100 µM in [5]; 8.44 µM in assay [6]. The GI50 in assay [7] is 66.3 µM; in [8] it was 22.4 µM; in [10] it was 70.1 µM. Besides, the TGI was greater than 100 µM in [1]; greater than 100 µM in assay [2]; greater than 68.7 µM in [3]; greater than 100 µM in [4]; greater than 100 µM in assay [5]; greater than 49.2 µM in assay [6]. Further, the TGI in assay [7] is greater than 100 µM; in assay [8] it was greater than 80.4 µM; in assay [9], greater than 100 µM; in assay [10] it was greater than 100 µM.
